Laboratory results as given in the NIST ThermoML archive (doi:10.1016/j.jct.2019.02.025).

What was measured:
[1] = for mass density / kinematic viscosity: 101.33 kPa, Liquid; for mass density: Vibrating tube method; for surface tension liquid-gas / kinematic viscosity: Surface laser light scattering (SLLS)
[2] = refractive index (Na D-line) (dimensionless); details: 101.33 kPa, Liquid, Standard Abbe refractometry

CCCCCCCCCCCC [dodecane]
[1]
Details	kinematic viscosity [m2/s]	mass density [kg/m3]	surface tension liquid-gas [mN/m]
293.15 K	–	748.81	–
298.16 K	1.76e-06	–	23.37
303.15 K	–	741.42	–
313.15 K	–	734.08	–
323.15 K	–	726.74	–
323.23 K	1.25e-06	–	21.9
333.15 K	–	719.38	–
343.15 K	–	711.32	–
348.21 K	9.24e-07	–	20.09
353.15 K	–	704.62	–
363.15 K	–	697.21	–
373.15 K	–	689.75	–
373.29 K	7.24e-07	–	18.02
383.15 K	–	682.25	–
393.15 K	–	674.68	–
398.25 K	5.87e-07	–	16.1
403.15 K	–	667.04	–
413.15 K	–	659.32	–
423.15 K	–	651.53	–
423.26 K	4.89e-07	–	14.25
433.15 K	–	643.6	–
443.15 K	–	635.55	–
448.27 K	4.16e-07	–	12.32
453.15 K	–	627.38	–
463.15 K	–	619.09	–
473.15 K	–	610.6	–

CCCCCCCCCC(=O)OCC [ethyl decanoate]
Details	kinematic viscosity [m2/s]	mass density [kg/m3]	refractive index	surface tension liquid-gas [mN/m]
[1], 293.15 K	–	864.08	–	–
[1], 298.13 K	2.2e-06	–	–	23.87
[1], 303.15 K	–	855.82	–	–
[1], 313.15 K	–	847.62	–	–
[1], 323.11 K	1.59e-06	–	–	22.57
[1], 323.15 K	–	839.41	–	–
[1], 333.15 K	–	830.71	–	–
[1], 343.15 K	–	822.79	–	–
[1], 348.1 K	1.22e-06	–	–	21.38
[1], 353.15 K	–	814.9	–	–
[1], 363.15 K	–	806.72	–	–
[1], 373.15 K	–	798.5	–	–
[1], 373.17 K	9.55e-07	–	–	19.81
[1], 383.15 K	–	790.26	–	–
[1], 393.15 K	–	781.97	–	–
[1], 398.16 K	7.48e-07	–	–	18.26
[1], 403.15 K	–	773.63	–	–
[1], 413.15 K	–	765.29	–	–
[1], 423.12 K	6.18e-07	–	–	16.8
[1], 423.15 K	–	756.81	–	–
[1], 433.15 K	–	748.26	–	–
[1], 443.15 K	–	739.7	–	–
[1], 448.1 K	4.92e-07	–	–	14.86
[1], 453.15 K	–	731.01	–	–
[2], 278.15 K	–	–	1.43213	–
[2], 283.15 K	–	–	1.43	–
[2], 288.15 K	–	–	1.42789	–
[2], 293.15 K	–	–	1.42577	–
[2], 298.15 K	–	–	1.42366	–
[2], 303.15 K	–	–	1.42155	–
[2], 308.15 K	–	–	1.41944	–
[2], 313.15 K	–	–	1.41729	–
[2], 318.15 K	–	–	1.41512	–
[2], 323.15 K	–	–	1.41297	–
[2], 328.15 K	–	–	1.41084	–
[2], 333.15 K	–	–	1.40873	–
[2], 338.15 K	–	–	1.40661	–
[2], 343.15 K	–	–	1.40451	–
[2], 348.15 K	–	–	1.40241	–
[2], 353.15 K	–	–	1.40034	–
[2], 358.15 K	–	–	1.39826	–

CCCCCCCCCCCC(=O)OCC [ethyl dodecanoate]
Details	kinematic viscosity [m2/s]	mass density [kg/m3]	refractive index	surface tension liquid-gas [mN/m]
[1], 293.15 K	–	862	–	–
[1], 298.03 K	3.11e-06	–	–	26.84
[1], 303.15 K	–	853.15	–	–
[1], 313.15 K	–	845.31	–	–
[1], 323.15 K	1.98e-06	838.31	–	24.54
[1], 333.15 K	–	830.53	–	–
[1], 343.15 K	–	822.74	–	–
[1], 348.25 K	1.44e-06	–	–	22.85
[1], 353.15 K	–	814.95	–	–
[1], 363.15 K	–	807.16	–	–
[1], 373.15 K	–	799.37	–	–
[1], 373.4 K	1.09e-06	–	–	21.17
[1], 383.15 K	–	791.55	–	–
[1], 393.15 K	–	783.72	–	–
[1], 398.14 K	8.72e-07	–	–	19.32
[1], 403.15 K	–	775.85	–	–
[1], 413.15 K	–	767.94	–	–
[1], 423.13 K	7.19e-07	–	–	17.83
[1], 423.15 K	–	759.99	–	–
[1], 433.15 K	–	751.6	–	–
[1], 443.15 K	–	744.05	–	–
[1], 448.22 K	5.91e-07	–	–	15.95
[1], 453.15 K	–	735.97	–	–
[2], 278.15 K	–	–	1.43791	–
[2], 283.15 K	–	–	1.43583	–
[2], 288.15 K	–	–	1.43375	–
[2], 293.15 K	–	–	1.43169	–
[2], 298.15 K	–	–	1.42961	–
[2], 303.15 K	–	–	1.42755	–
[2], 308.15 K	–	–	1.42547	–
[2], 313.15 K	–	–	1.42335	–
[2], 318.15 K	–	–	1.42125	–
[2], 323.15 K	–	–	1.41915	–
[2], 328.15 K	–	–	1.41707	–
[2], 333.15 K	–	–	1.41501	–
[2], 338.15 K	–	–	1.41295	–
[2], 343.15 K	–	–	1.4109	–
[2], 348.15 K	–	–	1.40886	–
[2], 353.15 K	–	–	1.40684	–
[2], 358.15 K	–	–	1.40479	–
